Row | Structure (SMILES) | melting point [°C]
1 | CCCCCS(=O)(=O)NC(=O)c1ccc2nc(C)n(Cc3ccc(N(C)C(=O)C(C)(C)C)cc3Cl)c2n1 [Example 64, 3-(2-chloro-4-(methyl(pivaloyl)amino)benzyl)-2-methyl-5-(1-pentanesulfonylcarbamoyl)-3H-imidazo[4,5-b]pyridine] | 207 to 208
2 | CCCCCOc1ccc(Cn2c(CC)nc3ccc(C(=O)NS(=O)(=O)CCCC)nc32)c(Cl)c1 [Example 66, 5-(1-butanesulfonylcarbamoyl)-3-(2-chloro-4-(1-pentyloxy)benzyl)-2-ethyl-3H-imidazo[4,5-b]pyridine] | 140 to 142
3 | CCCCS(=O)(=O)NC(=O)c1ccc2nc(CC)n(Cc3ccc(OCC4CCCCC4)cc3Cl)c2n1 [Example 67, 5-(1-butanesulfonylcarbamoyl)-3-(2-chloro-4-(cyclohexylmethyloxy)benzyl)-2-ethyl-3H-imidazo[4,5-b]pyridine] | 145 to 146
4 | CCCCCS(=O)(=O)NC(=O)c1ccc2nc(CC)n(Cc3ccc(OCC4CCCCC4)cc3Cl)c2n1 [Example 68, 3-(2-chloro-4-(cyclohexylmethyloxy)benzyl)-2-ethyl-5-(1-pentanesulfonylcarbamoyl)-3H-imidazo[4,5-b]pyridine] | 137 to 139
5 | CCCCS(=O)(=O)NC(=O)c1ccc2nc(C)n(Cc3ccc(-c4ccco4)cc3Cl)c2n1 [Example 69, 5-(1-butanesulfonylcarbamoyl)-3-[2-chloro-4-(2-furyl)benzyl]-2-methyl-3H-imidazo[4,5-b]pyridine] | 208 to 209
6 | CCCCCS(=O)(=O)NC(=O)c1ccc2nc(C)n(Cc3ccc(-c4ccco4)cc3Cl)c2n1 [Example 70, 3-[2-chloro-4-(2-furyl)benzyl]-2-methyl-5-(1-pentanesulfonylcarbamoyl)-3H-imidazo[4,5-b]pyridine] | 184 to 185
7 | CCCCCS(=O)(=O)NC(=O)c1ccc2nc(C)n(Cc3ccc(N(CC)C(=O)OC(C)(C)C)cc3Cl)c2n1 [Example 72, 3-[4-(N-(tert-butoxycarbonyl)-N-ethylamino)-2-chlorobenzyl]-2-methyl-5-(1-pentanesulfonylcarbamoyl)-3H-imidazo[4,5-b]pyridine] | 131 to 132
8 | CCCCCS(=O)(=O)NC(=O)c1cc(C)c2nc(C)n(Cc3ccc(N(C)C(=O)OC(C)(C)C)cc3Cl)c2n1 [Example 77, 3-(4-(N-(tert-butoxycarbonyl)-N-methylamino)-2-chlorobenzyl)-2,7-dimethyl-5-(1-pentanesulfonylcarbamoyl)-3H-imidazo[4,5-b]pyridine] | 193 to 194
9 | CCCCCS(=O)(=O)NC(=O)c1cc(C)c2nc(C)n(Cc3ccc(N(CC)C(=O)OC(C)(C)C)cc3Cl)c2n1 [Example 81, 3-[4-(N-(tert-butoxycarbonyl)-N-ethylamino)-2-chlorobenzyl]-2,7-dimethyl-5-(1-pentanesulfonylcarbamoyl)-3H-imidazo[4,5-b]pyridine] | 190 to 191
10 | CCCCCS(=O)(=O)NC(=O)c1ccc2nc(C)n(Cc3ccc(-n4cccc4)cc3Cl)c2n1 [Example 83, 3-(2-chloro-4-(1-pyrrolyl)benzyl)-2-methyl-5-(1-pentanesulfonylcarbamoyl)-3H-imidazo[4,5-b]pyridine] | 171 to 172
11 | CCCCCS(=O)(=O)NC(=O)c1cc(C)c2nc(C)n(Cc3ccc(-c4ccco4)cc3Cl)c2n1 [Example 86, 3-[2-chloro-4-(2-furyl)benzyl]-2,7-dimethyl-5-(1-pentanesulfonylcarbamoyl)-3H-imidazo[4,5-b]pyridine] | 177 to 178
12 | CCCCS(=O)(=O)NC(=O)c1cc(C)c2nc(C)n(Cc3ccc(-c4ccco4)cc3Cl)c2n1 [Example 88, 3-[2-chloro-4-(2-furyl)benzyl]-2,7-dimethyl-5-(1-butanesulfonylcarbamoyl)-3H-imidazo[4,5-b]pyridine] | 231 to 233
13 | CCCCCS(=O)(=O)NC(=O)c1ccc2nc(C)n(Cc3ccc(N(C)C(=O)OCCC)cc3Cl)c2n1 [Example 95, 3-(2-chloro-4-(N-methyl-N-(1-propoxycarbonyl)amino)benzyl)-2-methyl-5-(1-pentanesulfonylcarbamoyl)-3H-imidazo[4,5-b]pyridine] | 169 to 170
14 | CCCCCS(=O)(=O)NC(=O)c1ccc2nc(C)n(Cc3ccc(N(C)C(=O)OC(C)C)cc3Cl)c2n1 [Example 96, 3-(2-chloro-4-(N-methyl-N-(isopropoxycarbonyl)amino)benzyl)-2-methyl-5-(1-pentanesulfonylcarbamoyl)-3H-imidazo[4,5-b]pyridine] | 151 to 152
15 | CCCCCS(=O)(=O)NC(=O)c1ccc2nc(C)n(Cc3ccc(NC(=O)OC(C)(C)C)cc3Cl)c2n1 [Example 97, 3-(4-(N-(tert-butoxycarbonyl)amino)-2-chlorobenzyl)-2-methyl-5-(1-pentanesulfonylcarbamoyl)-3H-imidazo[4,5-b]pyridine] | 222 to 224
16 | CCC/C=C/S(=O)(=O)NC(=O)c1ccc2nc(C)n(Cc3ccc(NC(=O)OC(C)C)cc3Cl)c2n1 [Example 102, 3-(2-chloro-4-(N-(isopropoxycarbonyl)amino)benzyl)-2-methyl-5-((E)-1-penten-1-ylsulfonylcarbamoyl)-3H-imidazo[4,5-b]pyridine] | 187 to 189
17 | CCCCS(=O)(=O)NC(=O)c1ccc2nc(C)n(Cc3ccc(NC(=O)OC(C)C)cc3Cl)c2n1 [Example 103, 5-(1-butanesulfonylcarbamoyl)-3-(2-chloro-4-(N-(isopropoxycarbonyl)amino)benzyl)-2-methyl-3H-imidazo[4,5-b]pyridine] | 181 to 182
18 | CCCCCS(=O)(=O)NC(=O)c1ccc2nc(C)n(Cc3ccc(NC(=O)OC(C)C)cc3Cl)c2n1 [Example 108, 3-(4-(N-(isopropoxycarbonyl)amino)-2-chlorobenzyl)-2-methyl-5-(1-pentanesulfonylcarbamoyl)-3H-imidazo[4,5-b]pyridine] | 198 to 199
19 | CCCCS(=O)(=O)NC(=O)c1ccc2nc(C)n(Cc3ccc(NC(=O)OC(C)(C)C)cc3Cl)c2n1 [Example 109, 5-(1-butanesulfonylcarbamoyl)-3-(4-(N-t-butoxycarbonylamino)-2-chlorobenzyl)-2-methyl-3H-imidazo[4,5-b]pyridine] | 229 to 230
20 | CCCCS(=O)(=O)NC(=O)c1ccc2nc(C)n(Cc3ccc(NC(=O)OCC)cc3Cl)c2n1 [Example 111, 3-(4-ethoxycarbonylamino-2-chlorobenzyl)-2-methyl-5-(1-butanesulfonylcarbamoyl)-3H-imidazo[4,5-b]pyridine] | 236 to 237
21 | CCC/C=C/S(=O)(=O)NC(=O)c1ccc2nc(C)n(Cc3ccc(NC(=O)OC(C)(C)C)cc3Cl)c2n1 [Example 112, 3-(4-(N-t-butoxycarbonylamino)-2-chlorobenzyl)-2-methyl-5-((E)-1-penten-1-ylsulfonylcarbamoyl)-3H-imidazo[4,5-b]pyridine] | 215 to 216
22 | CCC/C=C/S(=O)(=O)NC(=O)c1ccc2nc(C)n(Cc3ccc(NC(=O)OCC)cc3Cl)c2n1 [Example 114, 3-(4-ethoxycarbonylamino-2-chlorobenzyl)-2-methyl-5-((E)-1-penten-1-ylsulfonylcarbamoyl)-3H-imidazo[4,5-b]pyridine] | 233 to 234

Source: patent publication US6573274B1, “Sulfonamide compounds and uses thereof as medicines” (Fujisawa Pharmaceutical Co. Ltd., priority 1998, dated 2003)
